Test results reported in publication PMC10184313, “Inhibition of Thiamine Diphosphate-Dependent Enzymes by Triazole-Based Thiamine Analogues” (ACS Medicinal Chemistry Letters, 2023).

How the values were obtained:
Z. mobilis PDC = molecular target: T1, Z. mobilis PDC (Zymomonas mobilis subsp. mobilis, UniProt P06672); assay: Z. mobilis PDC inhibitory activity assay (NADH consumption); assay type: biochemical; details: for Ki: Z. mobilis PDC, determined according to the KM for ThDP; for IC50: bacterial PDC (Zymomonas mobilis), [ThDP] 10 μM
T1 construct: made in house
T1 sequence (P06672 1-568): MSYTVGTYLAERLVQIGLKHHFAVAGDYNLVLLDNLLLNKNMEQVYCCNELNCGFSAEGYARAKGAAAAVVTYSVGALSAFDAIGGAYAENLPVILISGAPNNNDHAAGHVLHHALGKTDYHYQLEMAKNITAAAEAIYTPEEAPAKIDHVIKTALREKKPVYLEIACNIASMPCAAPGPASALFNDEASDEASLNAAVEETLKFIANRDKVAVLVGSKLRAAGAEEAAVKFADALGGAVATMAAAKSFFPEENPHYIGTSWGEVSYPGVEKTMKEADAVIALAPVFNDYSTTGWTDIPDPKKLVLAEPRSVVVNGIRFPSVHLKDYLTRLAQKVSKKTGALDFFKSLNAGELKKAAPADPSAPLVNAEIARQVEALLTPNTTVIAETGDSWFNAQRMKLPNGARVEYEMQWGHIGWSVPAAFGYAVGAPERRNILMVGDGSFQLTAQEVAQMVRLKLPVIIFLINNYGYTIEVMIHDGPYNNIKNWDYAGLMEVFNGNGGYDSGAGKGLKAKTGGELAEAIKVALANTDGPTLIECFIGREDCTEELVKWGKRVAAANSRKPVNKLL

[1] = test system: P. falciparum 3D7 transfected with an empty plasmid; assay: Anti-plasmodial activity, 3D7 transfected with an empty plasmid; assay type: cell-based; details: Plasmodium falciparum, 3D7, read-out: IC50 anti-plasmodial activity, empty plasmid
Protocol: Cell-based assays (Results)
Anti-plasmodial activity assay. This study used human malaria parasite P. falciparum strain 3D7 (chloroquine-sensitive) and the same strain expressing an extra copy of TPK with a GFP-tag ( PfTPK-GFP) generated as previously described. 9 The intraerythrocytic stage of the parasites were maintained essentially as previously described. 10 Compounds were tested at concentrations up to a highest final […]
were prepared in dimethyl sulfoxide (DMSO) followed by dilution in RPMI 1640 medium in the absence of thiamine or in the presence of 2.97 µM (or 297 µM) thiamine. The final concentration of DMSO that the parasites were exposed to never exceeded 0.05%. Two-fold serial dilutions were then performed, with each concentration tested in triplicate. The assay was performed as described 11 with some modifications. Experiments were initiated with parasites in the ring-stage, a parasitemia level of 0.5% and a haematocrit of 2%. Chloroquine (0.5 µM) was used as the positive control ( i.e. complete inhibition of parasite proliferation), and parasites maintained in the absence of any inhibitor represented 100% parasite proliferation. The final volume in each well was 200 µL. […] Parasite proliferation was measured by performing SYBR-Safe assay. […]
Excel and analysed by non-linear regression plot using GraphPad Prism. […]

Cc1ncc(Cn2cc(CCCC(=O)NO)nn2)c(N)n1 [Compound 24b]
Ki (Z. mobilis PDC): 0.68 µM
IC50 (Z. mobilis PDC): 20 ± 2 µM
IC50 [1]: 1.7 ± 0.3 µM

COc1ccc(-c2cn(CCCCc3cn(Cc4cnc(C)nc4N)nn3)nn2)cc1 [Compound 17c]
IC50 [1]: 38 ± 7 µM

Cc1ncc(Cn2cc(CCCCC(=O)NO)nn2)c(N)n1 [Compound 24c]
Ki (Z. mobilis PDC): 0.89 µM
IC50 (Z. mobilis PDC): 25 ± 2 µM
